# Assays:
# [1] = tested on: NCI-H460; experiment: Cytotoxicity against human H460 cells after 72 hrs by MTT assay; format: functional, cell-based; conditions: NCI-H460, 72 h
# [2] = tested on: HT-29; experiment: Cytotoxicity against human HT-29 cells after 72 hrs by MTT assay; format: functional, cell-based; conditions: HT-29, 72 h
# [3] = tested on: HepG2; experiment: Cytotoxicity against human HepG2 cells after 72 hrs by MTT assay; format: functional, cell-based; conditions: HepG2, 72 h
# [4] = tested on: SGC-7901; experiment: Cytotoxicity against human SGC7901 cells after 72 hrs by MTT assay; format: functional, cell-based; conditions: SGC-7901, 72 h
# [5] = tested on: HT-29; experiment: Ratio of iressa IC50 to compound IC50 for human HT-29 cells; format: functional
# [6] = tested on: HepG2; experiment: Ratio of iressa IC50 to compound IC50 for human HepG2 cells; format: functional
Compound,IC50 [1] [nM],IC50 [2] [nM],IC50 [3] [nM],IC50 [4] [nM],Ratio IC50 [5],Ratio IC50 [6]
CN(C)CCNc1nc(N/N=C/c2ccc(Cl)cc2)nc2ccccc12,3250,210,370,970,–,–
CN(C)CCNc1nc(N/N=C/c2ccc(F)cc2)nc2ccccc12,5680,1530,1820,4100,–,–
CN(C)CCNc1nc(N/N=C/c2ccc(F)cc2Cl)nc2ccccc12,1760,330,680,1680,–,–
CN(C)CCCNc1nc(N/N=C/c2ccc(Cl)cc2)nc2ccccc12,1490,270,550,1730,–,–
CN(C)CCCNc1nc(N/N=C/c2ccc(F)cc2)nc2ccccc12,4090,870,880,2760,–,–
CN(C)CCCNc1nc(N/N=C/c2ccc(F)cc2Cl)nc2ccccc12,1800,1150,670,1660,–,–
Clc1ccc(/C=N/Nc2nc(NCCCN3CCOCC3)c3ccccc3n2)cc1,4000,610,1740,3550,–,–
Fc1ccc(/C=N/Nc2nc(NCCCN3CCOCC3)c3ccccc3n2)cc1,5870,2190,4020,6770,–,–
Oc1ccccc1/C=N/Nc1nc(NCCCN2CCOCC2)c2ccccc2n1,2950,2080,3830,3210,–,–
Oc1cccc(/C=N/Nc2nc(NCCCN3CCOCC3)c3ccccc3n2)c1,4670,6320,6490,4900,–,–
CN1CCC(Nc2nc(N/N=C/c3ccc(Cl)cc3)nc3ccccc23)CC1,210,23,170,1320,–,–
CN1CCC(Nc2nc(N/N=C/c3ccc(F)cc3)nc3ccccc23)CC1,2640,1410,1950,1760,–,–
CN1CCC(Nc2nc(N/N=C/c3ccc(F)cc3Cl)nc3ccccc23)CC1,610,270,1120,1630,–,–
COc1ccc(OC)c(/C=N/Nc2nc(NC3CCN(C)CC3)c3ccccc3n2)c1,4760,2830,7170,4240,–,–
CN(C)CCNc1nc(N/N=C/c2nccn2Cc2ccccc2)nc2ccccc12,9650,2620,9600,4300,–,–
Cc1ccc(Cn2ccnc2/C=N/Nc2nc(NCCN(C)C)c3ccccc3n2)cc1,4200,1410,2980,2750,–,–

Compound,IC50 [1] [nM],IC50 [2] [nM],IC50 [3] [nM],IC50 [4] [nM],Ratio IC50 [5],Ratio IC50 [6]
CN(C)CCNc1nc(N/N=C/c2nccn2Cc2ccc(F)cc2)nc2ccccc12,1050,930,3060,2420,–,–
CN(C)CCNc1nc(N/N=C/c2nccn2Cc2cccc(Cl)c2Cl)nc2ccccc12,870,260,670,1850,–,–
CN(C)CCCNc1nc(N/N=C/c2nccn2Cc2ccccc2)nc2ccccc12,4670,1980,4040,2130,–,–
Cc1ccc(Cn2ccnc2/C=N/Nc2nc(NCCCN(C)C)c3ccccc3n2)cc1,1690,2440,3680,2600,–,–
CN(C)CCCNc1nc(N/N=C/c2nccn2Cc2ccc(F)cc2)nc2ccccc12,640,630,2860,3510,–,–
CN(C)CCCNc1nc(N/N=C/c2nccn2Cc2cccc(Cl)c2Cl)nc2ccccc12,430,360,850,1170,–,–
C(=N\Nc1nc(NCCCN2CCOCC2)c2ccccc2n1)/c1nccn1Cc1ccccc1,4030,2840,4800,3960,–,–
Cc1ccc(Cn2ccnc2/C=N/Nc2nc(NCCCN3CCOCC3)c3ccccc3n2)cc1,3760,3160,3190,3020,–,–
Fc1ccc(Cn2ccnc2/C=N/Nc2nc(NCCCN3CCOCC3)c3ccccc3n2)cc1,2470,930,2210,1920,–,–
Clc1cccc(Cn2ccnc2/C=N/Nc2nc(NCCCN3CCOCC3)c3ccccc3n2)c1Cl,910,720,1250,2660,–,–
CN1CCC(Nc2nc(N/N=C/c3nccn3Cc3ccccc3)nc3ccccc23)CC1,1030,750,1420,1380,–,–
Cc1ccc(Cn2ccnc2/C=N/Nc2nc(NC3CCN(C)CC3)c3ccccc3n2)cc1,770,200,1230,960,–,–
CN1CCC(Nc2nc(N/N=C/c3nccn3Cc3ccc(F)cc3)nc3ccccc23)CC1,210,650,980,780,–,–
CN1CCC(Nc2nc(N/N=C/c3nccn3Cc3cccc(Cl)c3Cl)nc3ccccc23)CC1,31,15,530,580,224,12
Cc1ccc(-c2cc(NCCN(C)C)c3ccccc3n2)cc1,3520,1350,2060,4920,–,–

# — ChEMBL document CHEMBL2040737, “Synthesis and biological evaluation of novel 2-(2-arylmethylene)hydrazinyl-4-aminoquinazoline derivatives as potent antitumor agents” (Eur J Med Chem, 2012)
